From patent publication US20240409530A1, “Disubstituted Pyrimidine Compounds for Ketohexokinase Inhibition” (Centennial Therapeutics, LLC, priority 2023, published 2024) come the findings set out here.

Assay in all cases: KHK inhibition assay, recombinant isozyme (coupled pyruvate kinase/LDH, NADH absorbance 340 nm)
Common to all, as to assay type: biochemical
Holding throughout (details): recombinant isozyme 6 nM, fructose 2 mM, ATP 0.1 mM

One test addresses Rat recombinant KHK-C (Rattus norvegicus (Rat), UniProt Q02974). Here is the method:
(§1) Determination of Human and Rat recombinant KHK-A and KHK-C isozyme IC50 Values
(§2) An assay reagent cocktail was prepared by combining NADH, water, TEA, KCl, MgCl2, PEP, ATP, DTT, coupling enzymes (pyruvate kinase and lactate dehydrogenase, LDH) to final concentrations as shown in Table B.
(§3) To this was added the relevant KHK isozyme to a final concentration of 6 nM. Aliquots of each inhibitor compound were diluted via 5-fold serial dilutions to produce final concentrations ranging from 1000 nM to 0.064 nM. The inhibitor aliquots were added to the assay reagent cocktail containing KHK with fructose (at a concentration of 2 mM) in a 96-well plate. The absorbance at 340 nm was measured via spectrophotometry and inhibition was analyzed using non-linear regression.

The target in another test is Human recombinant KHK-C (Homo sapiens (Human), UniProt P50053). On the procedure: as §1, §2, §3
Human recombinant KHK-C, sequence (P50053 whole entry): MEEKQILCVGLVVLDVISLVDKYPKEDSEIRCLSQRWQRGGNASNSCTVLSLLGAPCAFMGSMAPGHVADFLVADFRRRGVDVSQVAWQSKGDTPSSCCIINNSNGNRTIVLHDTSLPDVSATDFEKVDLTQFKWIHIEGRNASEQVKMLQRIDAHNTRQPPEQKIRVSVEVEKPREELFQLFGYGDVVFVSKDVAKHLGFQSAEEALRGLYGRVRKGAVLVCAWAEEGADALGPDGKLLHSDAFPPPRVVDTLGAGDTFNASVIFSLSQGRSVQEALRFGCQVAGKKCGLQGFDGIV
Another test concerns the target Rat recombinant KHK-A (Rattus norvegicus (Rat), UniProt Q02974). Here is the method: as §1, §2, §3
A further test deals with Human recombinant KHK-A (Homo sapiens (Human), UniProt P50053). Here is the method:
as §1, §2, §3

Rat recombinant KHK-A, sequence (Q02974 other isoform, or with tags, fused parts or gaps): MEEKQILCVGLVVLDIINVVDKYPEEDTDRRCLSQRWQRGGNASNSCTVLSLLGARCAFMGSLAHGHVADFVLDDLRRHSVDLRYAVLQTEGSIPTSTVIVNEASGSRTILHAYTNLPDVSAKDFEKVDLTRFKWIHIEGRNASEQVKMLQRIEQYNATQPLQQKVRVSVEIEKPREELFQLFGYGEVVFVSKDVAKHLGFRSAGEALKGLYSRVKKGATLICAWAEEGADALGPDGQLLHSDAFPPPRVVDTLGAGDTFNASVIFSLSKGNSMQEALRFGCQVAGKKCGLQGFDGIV
Rat recombinant KHK-C, sequence (Q02974 whole entry): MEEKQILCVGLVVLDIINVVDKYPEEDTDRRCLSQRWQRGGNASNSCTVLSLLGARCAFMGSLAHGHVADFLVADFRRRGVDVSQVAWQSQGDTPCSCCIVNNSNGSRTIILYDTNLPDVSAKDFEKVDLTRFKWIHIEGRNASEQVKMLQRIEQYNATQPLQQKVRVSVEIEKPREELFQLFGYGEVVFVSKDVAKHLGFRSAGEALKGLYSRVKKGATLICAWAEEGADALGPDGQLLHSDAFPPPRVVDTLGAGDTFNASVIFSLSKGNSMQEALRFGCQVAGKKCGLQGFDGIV
Human recombinant KHK-A, sequence (P50053 other isoform, or with tags, fused parts or gaps): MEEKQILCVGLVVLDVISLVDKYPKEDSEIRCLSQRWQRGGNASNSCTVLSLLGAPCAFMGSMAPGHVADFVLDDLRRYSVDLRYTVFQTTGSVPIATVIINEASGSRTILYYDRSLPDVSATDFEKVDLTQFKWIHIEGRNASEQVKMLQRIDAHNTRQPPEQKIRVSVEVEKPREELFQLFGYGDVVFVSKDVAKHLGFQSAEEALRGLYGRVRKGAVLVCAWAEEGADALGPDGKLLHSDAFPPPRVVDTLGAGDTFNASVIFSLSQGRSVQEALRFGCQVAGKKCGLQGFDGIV

For `COc1c(-c2cnn(CC(=O)N3CCNCC3)c2)nc(N2CC[C@@H]2C)nc1C(F)(F)F` [Compound A5, 2-(4-{2-[(S)-2-methyl-1-azetidinyl]-5-methoxy-6-(trifluoromethyl)-4-pyrimidinyl}-1-pyrazolyl)-1-(1-piperazinyl)-1-ethanone], the concentration for half-maximal inhibition (IC50) at Rat recombinant KHK-C is 44 nM; at Human recombinant KHK-C, 30.6 nM; on Rat recombinant KHK-A it was 26 nM; at Human recombinant KHK-A, 69 nM.
Taken in the same sequence, the figures for `COc1c(-c2cnn(C3CN(C)C3)c2)nc(N2C[C@@H](O)[C@@H]2C)nc1C(F)(F)F` [Compound A8, (2S,3R)-1-{5-methoxy-4-[1-(1-methyl-3-azetidinyl)-4-pyrazolyl]-6-(trifluoromethyl)-2-pyrimidinyl}-2-methyl-3-azetidinol] were 16 nM, 6.46 nM, 5.5 nM and 7.8 nM.
In the case of `C[C@H]1CCN1c1nc(-c2cnn(CC(=O)N3CCNCC3)c2)c(F)c(C(F)F)n1` [Compound A22, 2-(4-{2-[(S)-2-methyl-1-azetidinyl]-6-(difluoromethyl)-5-fluoro-4-pyrimidinyl}-1-pyrazolyl)-1-(1-piperazinyl)-1-ethanone], the concentration for half-maximal inhibition (IC50) at Human recombinant KHK-C was 65.8 nM.
For `COc1c(-c2cnn(CC(=O)N3CCNCC3)c2)nc(N2CC[C@@H]2C(F)F)nc1C(F)(F)F` [Compound A36, 2-(4-{2-[(R)-2-(difluoromethyl)-1-azetidinyl]-5-methoxy-6-(trifluoromethyl)-4-pyrimidinyl}-1-pyrazolyl)-1-(1-piperazinyl)-1-ethanone], the half-maximal inhibitory concentration (IC50) at Human recombinant KHK-C is 36.6 nM.
In the case of `CN1CC(n2cc(-c3cc(C(F)(F)F)nc(N4C[C@@H](O)[C@@H]4C(F)(F)F)n3)cn2)C1` (racemic) [Compound A25, (2R,3R)-1-{4-[1-(1-methyl-3-azetidinyl)-4-pyrazolyl]-6-(trifluoromethyl)-2-pyrimidinyl}-2-(trifluoromethyl)-3-azetidinol], the IC50 was determined as 15 nM on Rat recombinant KHK-C, 5.22 nM at Human recombinant KHK-C, 5.7 nM on Rat recombinant KHK-A and 2.2 nM on Human recombinant KHK-A.
As to `O=C(Cn1cc(-c2nc(N3CC[C@@H]3C(F)F)nc(C(F)(F)F)c2C2CC2)cn1)N1CCNCC1` [Compound A17, 2-(4-{2-[(R)-2-(difluoromethyl)-1-azetidinyl]-5-cyclopropyl-6-(trifluoromethyl)-4-pyrimidinyl}-1-pyrazolyl)-1-(1-piperazinyl)-1-ethanone], the IC50 on Human recombinant KHK-C stood at 74.9 nM.
`CCc1c(-c2cnn(CC(=O)N3CCNCC3)c2)nc(N2CC[C@@H]2C)nc1C(F)F` [Compound A26, 2-(4-{2-[(S)-2-methyl-1-azetidinyl]-6-(difluoromethyl)-5-ethyl-4-pyrimidinyl}-1-pyrazolyl)-1-(1-piperazinyl)-1-ethanone]: the IC50 at Rat recombinant KHK-C stood at 26 nM; at Human recombinant KHK-C it was 32.9 nM; on Rat recombinant KHK-A, 5.2 nM; on Human recombinant KHK-A, 13 nM.
For the molecule `C[C@H]1[C@H](O)CN1c1nc(-c2cnn(C3CN(C)C3)c2)c(C2CC2)c(C(F)(F)F)n1` [Compound A34, (2S,3R)-1-{5-cyclopropyl-4-[1-(1-methyl-3-azetidinyl)-4-pyrazolyl]-6-(trifluoromethyl)-2-pyrimidinyl}-2-methyl-3-azetidinol], at Human recombinant KHK-C, the half-maximal inhibitory concentration (IC50) came out at 25.4 nM.
The same measure, in the same setting: with `O=C(Cn1cc(-c2nc(N3CC[C@@H]3C(F)F)nc(C(F)F)c2F)cn1)N1CCNCC1` [Compound A39, 2-(4-{2-[(R)-2-(difluoromethyl)-1-azetidinyl]-6-(difluoromethyl)-5-fluoro-4-pyrimidinyl}-1-pyrazolyl)-1-(1-piperazinyl)-1-ethanone] the figure was 110 nM.
Regarding `C[C@H]1[C@H](O)CN1c1nc(-c2cnn(C3CN(C)C3)c2)c(Cl)c(C(F)(F)F)n1` [Compound A10, (2S,3R)-1-{5-chloro-4-[1-(1-methyl-3-azetidinyl)-4-pyrazolyl]-6-(trifluoromethyl)-2-pyrimidinyl}-2-methyl-3-azetidinol], the 50% inhibitory concentration (IC50) at Rat recombinant KHK-C was 1.1 nM; on Human recombinant KHK-C, 0.856 nM; on Rat recombinant KHK-A, 0.2 nM; at Human recombinant KHK-A it was 0.2 nM.
Turning to `O=C(Cn1cc(-c2cc(C(F)F)nc(N3CC[C@@H]3C(F)(F)F)n2)cn1)N1CCNCC1` [Compound A20, 2-(4-{2-[(R)-2-(trifluoromethyl)-1-azetidinyl]-6-(difluoromethyl)-4-pyrimidinyl}-1-pyrazolyl)-1-(1-piperazinyl)-1-ethanone], the half-maximal inhibitory concentration (IC50) on Human recombinant KHK-C was determined as 133 nM.
Regarding `C[C@H]1CCN1c1nc(-c2cnn(CC(=O)N3CCNCC3)c2)c(F)c(C(F)(F)F)n1` [Compound A32, 2-(4-{2-[(S)-2-methyl-1-azetidinyl]-5-fluoro-6-(trifluoromethyl)-4-pyrimidinyl}-1-pyrazolyl)-1-(1-piperazinyl)-1-ethanone], the 50% inhibitory concentration (IC50) on Rat recombinant KHK-C stood at 20 nM; on Human recombinant KHK-C it was 23.2 nM; at Rat recombinant KHK-A it was 8.2 nM; at Human recombinant KHK-A it was 12 nM.
Take `C[C@H]1CCN1c1nc(-c2cnn(CC(=O)N3CCNCC3)c2)c(C2CC2)c(C(F)(F)F)n1` [Compound A30, 2-(4-{2-[(S)-2-methyl-1-azetidinyl]-5-cyclopropyl-6-(trifluoromethyl)-4-pyrimidinyl}-1-pyrazolyl)-1-(1-piperazinyl)-1-ethanone]: the 50% inhibitory concentration (IC50) on Human recombinant KHK-C is 41.3 nM.
The same measure, in the same setting: as for `COc1c(-c2cnn(CC(=O)N3CCNCC3)c2)nc(N2CC[C@@H]2C(F)(F)F)nc1C(F)F` [Compound A15, 2-(4-{2-[(R)-2-(trifluoromethyl)-1-azetidinyl]-6-(difluoromethyl)-5-methoxy-4-pyrimidinyl}-1-pyrazolyl)-1-(1-piperazinyl)-1-ethanone], the figure is 32.7 nM; as for `O=C(Cn1cc(-c2nc(N3CC[C@@H]3C(F)F)nc(C(F)(F)F)c2F)cn1)N1CCNCC1` [Compound A16, 2-(4-{2-[(R)-2-(difluoromethyl)-1-azetidinyl]-5-fluoro-6-(trifluoromethyl)-4-pyrimidinyl}-1-pyrazolyl)-1-(1-piperazinyl)-1-ethanone], 47.8 nM.
The same measure, in the same setting: as for `O=C(Cn1cc(-c2nc(N3CC[C@@H]3C(F)F)nc(C(F)F)c2Cl)cn1)N1CCNCC1` [Compound A37, 2-(4-{2-[(R)-2-(difluoromethyl)-1-azetidinyl]-5-chloro-6-(difluoromethyl)-4-pyrimidinyl}-1-pyrazolyl)-1-(1-piperazinyl)-1-ethanone], the figure is 11.9 nM; as for `CCc1c(-c2cnn(CC(=O)N3CCNCC3)c2)nc(N2CC[C@@H]2C(F)F)nc1C(F)F` [Compound A40, 2-(4-{2-[(R)-2-(difluoromethyl)-1-azetidinyl]-6-(difluoromethyl)-5-ethyl-4-pyrimidinyl}-1-pyrazolyl)-1-(1-piperazinyl)-1-ethanone], 33.2 nM.
As for `C[C@H]1CCN1c1nc(-c2cnn(CC(=O)N3CCNCC3)c2)c(Cl)c(C(F)(F)F)n1` [Compound A4, 2-(4-{2-[(S)-2-methyl-1-azetidinyl]-5-chloro-6-(trifluoromethyl)-4-pyrimidinyl}-1-pyrazolyl)-1-(1-piperazinyl)-1-ethanone], the half-maximal inhibitory concentration (IC50) is 4.9 nM at Rat recombinant KHK-C, 5.94 nM at Human recombinant KHK-C, 1.3 nM on Rat recombinant KHK-A and 1.8 nM at Human recombinant KHK-A.
As for `O[C@@H]1CN(c2nc(-c3cnn(C4CNC4)c3)cc(C(F)(F)F)n2)[C@H]1C(F)(F)F` (racemic) [Compound A31, (2R,3R)-1-{4-[1-(3-azetidinyl)-4-pyrazolyl]-6-(trifluoromethyl)-2-pyrimidinyl}-2-(trifluoromethyl)-3-azetidinol], the IC50 on Human recombinant KHK-C was found to be 16.8 nM.
Still for that read-out and setting: with `O=C(Cn1cc(-c2nc(N3CC[C@@H]3C(F)F)nc(C(F)F)c2C2CC2)cn1)N1CCNCC1` [Compound A13, 2-(4-{2-[(R)-2-(difluoromethyl)-1-azetidinyl]-5-cyclopropyl-6-(difluoromethyl)-4-pyrimidinyl}-1-pyrazolyl)-1-(1-piperazinyl)-1-ethanone] the figure was 41.1 nM; with `COc1c(-c2cnn(CC(=O)N3CCNCC3)c2)nc(N2CC[C@@H]2C(F)F)nc1C(F)F` [Compound A44, 2-(4-{2-[(R)-2-(difluoromethyl)-1-azetidinyl]-6-(difluoromethyl)-5-methoxy-4-pyrimidinyl}-1-pyrazolyl)-1-(1-piperazinyl)-1-ethanone], 61 nM.
Turning to `O=C(Cn1cc(-c2nc(N3CC[C@@H]3C(F)(F)F)nc(C(F)(F)F)c2Cl)cn1)N1CCNCC1` [Compound A29, 2-(4-{2-[(R)-2-(trifluoromethyl)-1-azetidinyl]-5-chloro-6-(trifluoromethyl)-4-pyrimidinyl}-1-pyrazolyl)-1-(1-piperazinyl)-1-ethanone], the IC50 at Human recombinant KHK-C was 5.03 nM.
For `COc1c(-c2cnn(CC(=O)N3CCNCC3)c2)nc(N2CC[C@@H]2C)nc1C(F)F` [Compound A23, 2-(4-{2-[(S)-2-methyl-1-azetidinyl]-6-(difluoromethyl)-5-methoxy-4-pyrimidinyl}-1-pyrazolyl)-1-(1-piperazinyl)-1-ethanone], the 50% inhibitory concentration (IC50) on Human recombinant KHK-C is 54.6 nM.
The same measure, in the same setting: as for `CCc1c(-c2cnn(CC(=O)N3CCNCC3)c2)nc(N2CC[C@@H]2C(F)F)nc1C(F)(F)F` [Compound A41, 2-(4-{2-[(R)-2-(difluoromethyl)-1-azetidinyl]-5-ethyl-6-(trifluoromethyl)-4-pyrimidinyl}-1-pyrazolyl)-1-(1-piperazinyl)-1-ethanone], the figure is 17.1 nM; as for `O=C(Cn1cc(-c2cc(C(F)F)nc(N3CC[C@@H]3C(F)F)n2)cn1)N1CCNCC1` [Compound A14, 2-(4-{2-[(R)-2-(difluoromethyl)-1-azetidinyl]-6-(difluoromethyl)-4-pyrimidinyl}-1-pyrazolyl)-1-(1-piperazinyl)-1-ethanone], 318 nM.

Broadly, the IC50 is the concentration that gives 50% inhibition.
